Reference: US20110160462A1, “CRYSTALLINE FORMS OF THIAZOLIDINEDIONE COMPOUND AND ITS MANUFACTURING METHOD” (DAIICHI SANKYO COMPANY, LIMITED, priority 2008, published 2011)
“Also recorded” adds a separate entry of the source. Read-outs that look alike come from different tables or passages of the source. Each block holds one compound with its values, some of them ahead of it.

Tests used:
[1] = Solubility in dilute hydrochloric acid (Test Example 3); conditions: for The concentration of 5-(4-{[6-(4-amino-3,5-dimethylphenoxy)-1-methyl-1-H-benzimidazol-2-yl]methoxy}benzyl)-1,3-thiazolidine-2,4-dione in dilute hydrochloric acid: dilute hydrochloric acid 9.6 mg/g (pH about 0.7), 25° C., 500 mg in 5 mL, sampled after 6 minutes
Protocol: Concentrated hydrochloric acid was diluted with water to prepare dilute hydrochloric acid (with a pH of about 0.7 at 25° C.) with a hydrochloric acid concentration of 9.6 mg/g, which was used as a test liquid. 500 mg of the crystalline form was weighed and added to 5 mL of the test liquid at 25° C. and stirred at the same temperature. After 6 minutes, the resulting test liquid was sampled and filtered. The concentration of 5-(4-{[6-(4-amino-3,5-dimethylphenoxy)-1-methyl-1-H-benzimi dazol-2-yl]methoxy}benzyl) 3-thiazolidine-2,4-dione in the filtrate was determined.
The concentration of 5-(4-{[6-(4-amino-3,5-dimethylphenoxy)-1-methyl-1-H-benzimi dazol-2-yl]methoxy}benzyl) 3-thiazolidine-2,4-dione was determined by the method described below.
Water, acetonitrile and methanol were mixed in a volume ratio of 55:40:5 to form a sample solvent.
In the sample solvent was dissolved 0.2 g of isoamyl 4-hydroxybenzoate so that 200 mL of an internal standard solution was obtained. About 0.04 g of a standard sample of 5-(4-{[6-(4-amino-3,5-dimethylphenoxy)-1-methyl-1-H-benzimi dazol-2-yl]methoxy}benzyl)-1,3-thiazolidine-2,4-dione dihydrochloride monohydrate was precisely weighed, transferred to a 200 mL measuring flask and dissolved in the sample solvent to form 200 mL of a solution. 5 mL of the solution was precisely measured and transferred to a 50 mL measuring flask. 10 mL of the internal standard solution was precisely added to the measuring flask, and the sample solvent was further added thereto to form 50 mL of a standard solution.
After sampling, the test liquid was filtered, and about 0.04 g of the filtered test liquid was precisely weighed and transferred to a 50 mL measuring flask. About 2.5 mL of dimethyl sulfoxide was added thereto. After 10 mL of the internal standard solution was added thereto, the sample solvent was further added thereto to form 50 mL of a sample solution.
The concentration was measured under the test conditions below.
The concentration is calculated from the following formula.
The concentration (mg/g) of the test liquid=1000×(QT×WS×FP×502.58)/(QS×WT×40×593.52),
wherein WS: the weight (g) of the standard sample when the standard solution is prepared; WT: the weight (g) of the test liquid when the sample solution is prepared; FP: the purity factor of the standard sample; QS: the value obtained by dividing the peak area of the standard sample in the chromatogram of the standard solution by the peak area of the internal standard; and QT: the value obtained by dividing the peak area of the sample in the chromatogram of the sample solution by the peak area of the internal standard.

[2] = biological target: T1, peroxisome proliferator-activated receptor (PPAR) γ (Homo sapiens, UniProt P37231); conditions: as disclosed in Patent Documents 1 to 5; cited from earlier work
T1 sequence (P37231 1-505): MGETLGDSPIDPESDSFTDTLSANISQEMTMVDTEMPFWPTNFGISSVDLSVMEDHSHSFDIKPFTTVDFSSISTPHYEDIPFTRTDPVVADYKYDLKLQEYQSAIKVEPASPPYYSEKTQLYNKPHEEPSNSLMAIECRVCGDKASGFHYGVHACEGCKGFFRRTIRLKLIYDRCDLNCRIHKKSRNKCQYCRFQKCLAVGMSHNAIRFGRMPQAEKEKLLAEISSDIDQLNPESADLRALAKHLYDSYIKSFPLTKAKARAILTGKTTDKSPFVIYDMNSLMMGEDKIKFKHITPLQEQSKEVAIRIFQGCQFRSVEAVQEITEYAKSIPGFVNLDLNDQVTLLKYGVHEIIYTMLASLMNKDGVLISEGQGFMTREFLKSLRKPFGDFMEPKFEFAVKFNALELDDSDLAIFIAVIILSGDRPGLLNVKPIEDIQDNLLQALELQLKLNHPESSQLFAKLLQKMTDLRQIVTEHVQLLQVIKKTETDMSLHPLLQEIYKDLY

[3] = as disclosed in Japanese Patent No. 3488099; cited from earlier work
cancer cells [4] = conditions: in combination with a VEGFR inhibitor or a Raf kinase inhibitor; Test Example 6 in WO 2007/091622; cited from earlier work
cancer cells [5] = conditions: in combination with an epidermal growth factor receptor (EGFR) inhibitor; Test Example 4 in WO 2007/091622; cited from earlier work
[6] = system: human non-small-cell lung cancer; conditions: Test Example 5 in WO 2007/091622, cited from earlier work
[7] = system: cancer cells including human stomach cancer cells, human breast cancer cells, small cell lung cancer, pancreas cancer cells, prostate cancer cells, kidney …; conditions: Test Example 1 in WO 2007/091622; cited from earlier work
human leukemia cells = conditions: Test Example 2 in WO 2007/091622; cited from earlier work
human kidney cancer = conditions: Test Example 7 in WO 2007/091622, cited from earlier work
[8] = system: human colon cancer cell lines; conditions: Test Example 3 in WO 2007/091622; cited from earlier work

The concentration of 5-(4-{[6-(4-amino-3,5-dimethylphenoxy)-1-methyl-1-H-benzimidazol-2-yl]methoxy}benzyl)-1,3-thiazolidine-2,4-dione in dilute hydrochloric acid ([1]; dihydrochloride monohydrate): 0.276 mg/g
SMILES: Cc1cc(Oc2ccc3nc(COc4ccc(CC5SC(=O)NC5=O)cc4)n(C)c3c2)cc(C)c1N.Cl.Cl.O (centres unmarked) [5-(4-{[6-(4-amino-3,5-dimethylphenoxy)-1-methyl-1-H-benzimidazol-2-yl]methoxy}benzyl)-1,3-thiazolidine-2,4-dione dihydrochloride monohydrate]

SMILES: Cc1cc(Oc2ccc3nc(COc4ccc(CC5SC(=O)NC5=O)cc4)n(C)c3c2)cc(C)c1N (centres unmarked) [Compound (I), 5-(4-{[6-(4-amino-3,5-dimethylphenoxy)-1-methyl-1-H-benzimidazol-2-yl]methoxy}benzyl)-1,3-thiazolidine-2,4-dione]
ability to activate PPAR γ [2]: significant ability to activate
activity to ameliorate insulin resistance and to reduce blood sugar [3]: significant activity to ameliorate insulin resistance and to reduce blood sugar

The concentration of 5-(4-{[6-(4-amino-3,5-dimethylphenoxy)-1-methyl-1-H-benzimidazol-2-yl]methoxy}benzyl)-1,3-thiazolidine-2,4-dione in dilute hydrochloric acid ([1]; listed as Crystalline form A manufactured according to Example 4, dihydrochloride monohydrate): 0.325 mg/g
SMILES: Cc1cc(Oc2ccc3nc(COc4ccc(CC5SC(=O)NC5=O)cc4)n(C)c3c2)cc(C)c1N.Cl.Cl.O (centres unmarked) [Crystalline form A, 5-(4-{[6-(4-amino-3,5-dimethylphenoxy)-1-methyl-1-H-benzimidazol-2-yl]methoxy}benzyl)-1,3-thiazolidine-2,4-dione dihydrochloride monohydrate]
Solubility / concentration in dilute hydrochloric acid, comparison in words ([1]; dilute hydrochloric acid, dihydrochloride monohydrate): highest concentration among the dihydrochloride monohydrate crystalline forms; also recorded: higher solubility than Crystalline form B

SMILES: Cc1cc(Oc2ccc3nc(COc4ccc(CC5SC(=O)NC5=O)cc4)n(C)c3c2)cc(C)c1N.Cl.Cl (centres unmarked) [dihydrochloride of Compound (I), 5-(4-{[6-(4-amino-3,5-dimethylphenoxy)-1-methyl-1-H-benzimidazol-2-yl]methoxy}benzyl)-1,3-thiazolidine-2,4-dione dihydrochloride]
activity to inhibit the growth of cancer cells in combination (cancer cells [4]): synergistic activity to inhibit the growth
activity to inhibit the growth of cancer cells in combination (cancer cells [5]): synergistic activity to inhibit the growth
antitumor activity against human non-small-cell lung cancer ([6]; alone): has antitumor activity
antitumor activity against human non-small-cell lung cancer in combination ([6]; in combination with an EGFR inhibitor): enhanced antitumor activity
activity to inhibit the growth of cancer cells [7]: significant activity to inhibit the growth
growth inhibition of human leukemia cells (human leukemia cells): significantly inhibits the growth-inhibiting activity
antitumor activity against human kidney cancer (human kidney cancer; alone): has antitumor activity
antitumor activity against human kidney cancer in combination (human kidney cancer; in combination with a VEGFR inhibitor or a Raf kinase inhibitor): enhanced antitumor activity
antitumor activity in vivo against human colon cancer cell lines [8]: significant antitumor activity
